Experiment [1] has as its system zebrafish (ZF) (Danio rerio) embryos. Kind of experiment: Zebrafish embryo model, cell division and development. In kind it is in vivo. The procedure:
ZF eggs were removed from their chorions by mild digestion in 1% Trypsin-EDTA (Sigma) for 10 minutes at 28.5° C. (Standard temperature—ST), washed three times in “egg water”^15-16 and twice in “embryonic medium” (EM)^15-16. The dechorionated two-cell stage cleaving eggs/embryos were transferred to the 24-well plastic cell culture plates (Costar, City, State) filled with EM or Hank's Balanced Salt Saline (HBSS, Gibco, City, State). Dechorionated embryos (10-12 per well) were exposed to the drugs at a constant ST for 0.5-24 hours. The final volume of the media in each well was 500 μL. All reference as well as test compounds were used at concentrations ranging from 10 μM to 4 mM. The title compounds were dissolved in DMSO and then diluted serially with the incubation medium. The final concentration of DMSO in the wells was 1.2% (with the exception of the etoposide treatment where it was 3%). The sham-treated control embryos were incubated in EM or HBSS in the presence of 1.2% (or 3%) DMSO.
Observations of cell division and development of the ZF embryos were carried out using a SMZ-10A stereo microscope (Nicon, City, State), once every 30 minutes within the first 3 hours of incubation and at 6, 12 and 24 hours, as well. […] The stereo microscope was fitted with a specially designed transparent heating tray in order to keep embryos at ST during observations. Pictures of the embryos were taken with a H-III Photomicrographic System (Nicon) using Ektachrome 64X film (Kodak, Rochester, N.Y.).

A further experiment concerns the target T1, Bovine brain tubulin (Bos taurus, UniProt P81947+Q6B856).
T1 construct: purchased Sigma, St. Louis, Mo; host or cells: bovine brain (tissue-purified)
As to the kind of experiment: Tubulin turbidity assay (GTP-induced tubulin polymerization). Conditions: for effect on GTP-dependent tubulin polymerization (turbidity): 1 mg/ml tubulin, 1 mM GTP, 37° C., OD 350 nm. In kind it is biochemical. The procedure: Bovine brain tubulin (Sigma, St. Louis, Mo.) was used in standard turbidity assays to test the effects of compounds COBRA-1 and COBRA-2 as well as control compounds on GTP-induced tubulin polymerization. Compounds (in 1% DMSO) were added to tubulin (1 mg/ml, 0.1M MES, 1 mM EGTA, 0.5 mM MgCl2, 0.1 mM EDTA, 2.5M glycerol, 1 μg/ml leupeptin, 1 μg/ml aprotinin, pH 6.5) followed by stimulation of polymerization with 1 mM GTP at 2 minutes and 1 mM taxol at 30 minutes. Optical density was measured using a Becton Dickinson UV spectrophotometer (350 nm) using a thermostated cuvette holder to keep the reaction at 37° C. Readings obtained from the spectro-photometer were standardized by subtracting the background absorbance of the compound in water from the sample reading following drug addition.
To test the latitude of the structure at the opposite end of the molecule from the long chain (head region), three new COBRA compounds were synthesized according to the schemes shown below: COBRA-3, COBRA-4, and COBRA-5. Each of these compounds was then tested for tubulin depolymerization activity, using the tubidity assay described in the Examples above.
Each of these compounds was assayed for effects on GTP-dependent tubulin polymerization, using the methods described above.

Another experiment has as its system human tumor cell lines. Kind of experiment: MTT assays, panel of human tumor cell lines (overall statement). In kind it is cell-based. Conditions: 0.1 to 250 μM. The procedure: (§1) The antiproliferative activity of […] and the control mono-THF containing compounds 8.2, 8.3, and 8.4 was examined against a panel of 5 different human tumor cell lines using standard MTT (3-[4,5-dimethylthiazol-2-yl]-2,5-diphenyl tetrazolium bromide) assays^18 (Boehringer Mannheim Corp., Indianapolis, Ind.).
Briefly, exponentially growing brain tumor cells were seeded into a 96-well plate at a density of 2.5×10^4 cells/well and incubated for 36 hours at 37° C. prior to drug exposure. On the day of treatment, culture medium was carefully aspirated from the wells and replaced with fresh medium containing the test or control compounds at concentrations ranging from 0.1 to 250 μM. Triplicate wells were used for each treatment. The cells were incubated with the various compounds for 24-36 hours at 37° C. in a humidified 5% CO2 atmosphere. To each well, 10 μl of MTT (0.5 mg/ml final concentration) was added and the plates were incubated at 37° C. for 4 hours to allow MTT to form formazan crystals by reacting with metabolically active cells . […] The absorbence of each well was measured in a microplate reader (Labsystems) at 540 nm and a reference wavelength of 690 nm. […] The percent survival was calculated using the formula: % survival=Live cell number[test]×100/Live cell number[control]. […]

For a further experiment, the system named is SQ20B. As to the kind of experiment: MTT assay. In kind it is cell-based, human. Particulars: 24-36 hours. How it is done:
as §1
(§2) Briefly, exponentially growing brain tumor cells were seeded into a 96-well plate at a density of 2.5×10^4 cells/well and incubated for 36 hours at 37° C. prior to drug exposure. On the day of treatment, culture medium was carefully aspirated from the wells and replaced with fresh medium containing the test or control compounds at concentrations ranging from 0.1 to 250 μM. Triplicate wells were used for each treatment. The cells were incubated with the various compounds for 24-36 hours at 37° C. in a humidified 5% CO2 atmosphere. To each well, 10 μl of MTT (0.5 mg/ml final concentration) was added and the plates were incubated at 37° C. for 4 hours to allow MTT to form formazan crystals by reacting with metabolically active cells . The formazan crystals were solubilized overnight at 37° C. in a solution containing 10% SDS in 0.01 M HCl. The absorbence of each well was measured in a microplate reader (Labsystems) at 540 nm and a reference wavelength of 690 nm. To translate the OD 540 values into the number of live cells in each well, the OD540 values were compared to those on standard OD540-versus-cell number curves generated for each cell line. The percent survival was calculated using the formula: % survival=Live cell number[test]×100/Live cell number[control].
(§3) IC50 values were calculated by non-linear regression analysis using an Graphpad Prism software version 2.0 (Graphpad Software, Inc., San Diego, Calif.).

The test system of another experiment is NALM-6. Kind of experiment: MTT assay. The class given is cell-based, human. Conditions: 24-36 hours. The procedure:
as §1, §2, §3
(§4) The following human cancer cell lines were used in the present study: BT-20, breast cancer; MDA-MB-231, breast cancer; PC3, prostate cancer; U87 and U373, glioblastoma; NALM-6, B-lineage acute lymphoblastic leukemia. These cell lines were obtained from American Type Culture Collection (Manassas, Va.) and maintained as continuous cell lines in Dulbecco's modified Eagles's medium supplemented with 10% fetal bovine serum and antibiotics.

In a further experiment the test system is PC-3. Kind of experiment: MTT assay. The class given is cell-based, human. Particulars: 24-36 hours. How it is done:
as §1, §2, §3, §4

For the next experiment, the system named is U87. As to the kind of experiment: MTT assay. The class given is cell-based, human. Particulars: 24-36 hours. How it is done:
as §1, §2, §3, §4

The next experiment deals with MDA-MB-231. Kind of experiment: MTT assay. The class given is cell-based, human. Conditions: 24-36 hours. The procedure: as §1, §2, §3, §4
Experiment [2] concerns BT-20 breast cancer cells. As to the kind of experiment: Cytotoxicity by confocal microscopy (tubulin immunofluorescence). The class given is cell-based, human. How it is done:
(§5) Cells were incubated at 37° C. for the indicated time periods with the title compounds. At the end of the incubation, cells were washed twice with PBS and fixed in 2% paraformaldehyde. The cells were permeabilized and non-specific binding sites were blocked with 2.5% BSA in PBS containing 0.1% Triton X-100 for 30 minutes. Tubulin expression was examined by immunofluorescence using a monoclonal antibody against α-tubulin (Sigma Chemical Co, St. Louis, Mo.) at a dilution of 1:1000 and an anti-mouse IgG conjugated to FITC. Cells were washed in PBS and counterstained with toto-3 (Molecular Probes Inc., Eugene, Oreg.) for 10 minutes at a dilution of 1:1000. Cells were washed again with PBS and the coverslips were mounted with Vectashield (Vector Labs, Burlingame, Calif.) and viewed with a confocal microscope (Bio-Rad MRC 1024) mounted in a Nikon Labhophot upright microscope. Digital images were saved on a Jaz disk and processed with Adobe Photoshop software (Adobe Systems, Mountain View, Calif.).
(§6) The ultrastructural changes in human breast and glioblastoma cancer cells treated with COBRA-1 or COBRA-2 were examined by confocal microscopy and by transmission electron microscopy, using methods previously reported^19.

The subject of experiment [3] is U373 brain tumor cells. The experiment is described as above. In kind it is cell-based, human. The procedure: as §5, §6
Experiment [4] concerns U373 brain tumor cells. As to the kind of experiment: Two-photon confocal laser scanning microscopy, DiA-labeled cells. The class given is cell-based, human. Conditions: for cell morphology: U373, 100 μM. The procedure:
In some experiments, COBRA-1 treated brain tumor cells were labeled with the membrane dye DiA and imaged using multiphoton microscopy. The individual tumor cells were imaged 1 hour before adding 100 μM COBRA- 1. The total imaging period was 3 hours.
U373 brain tumor cells were labeled with the membrane dye DiA and imaged using two-photon microscopy.
Arrows denote membrane ruffles formed in the direction that the cell is crawling. Arrowheads denote the trailing edge or the edge where the cell is retracting. The cell was imaged 1 hour before adding 100 μM DDE261 (FIG. 9A). […] The cell continued to shrink throughout the 3 hour imaging period (FIGS. 9E and 9F). The white material in the color photographs is the dye, DiA. The Scale Bar denotes 20 microns.

A further experiment deals with Nalm-6 leukemia cells. Kind of experiment: Transmission electron microscopy. In kind it is cell-based, human. Also noted: dose or concentration left out as unconfirmed.
The subject of the next experiment is human cell lines. As to the kind of experiment: Anti-cancer activity against human cell lines. The class given is cell-based.

T1 sequence (P81947 whole entry): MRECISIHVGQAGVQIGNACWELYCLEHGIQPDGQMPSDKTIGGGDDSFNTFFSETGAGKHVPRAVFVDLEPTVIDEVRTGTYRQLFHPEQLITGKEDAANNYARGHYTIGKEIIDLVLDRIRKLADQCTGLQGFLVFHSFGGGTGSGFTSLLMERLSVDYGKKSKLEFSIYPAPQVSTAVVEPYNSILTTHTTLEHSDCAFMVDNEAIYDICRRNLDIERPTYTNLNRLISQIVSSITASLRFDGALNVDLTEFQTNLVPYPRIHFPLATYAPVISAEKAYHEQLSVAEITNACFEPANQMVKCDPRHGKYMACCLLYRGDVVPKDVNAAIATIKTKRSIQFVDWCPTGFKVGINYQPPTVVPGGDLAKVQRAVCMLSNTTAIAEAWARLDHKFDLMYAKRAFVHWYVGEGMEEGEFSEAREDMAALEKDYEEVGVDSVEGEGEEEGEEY
T1 sequence (Q6B856 whole entry): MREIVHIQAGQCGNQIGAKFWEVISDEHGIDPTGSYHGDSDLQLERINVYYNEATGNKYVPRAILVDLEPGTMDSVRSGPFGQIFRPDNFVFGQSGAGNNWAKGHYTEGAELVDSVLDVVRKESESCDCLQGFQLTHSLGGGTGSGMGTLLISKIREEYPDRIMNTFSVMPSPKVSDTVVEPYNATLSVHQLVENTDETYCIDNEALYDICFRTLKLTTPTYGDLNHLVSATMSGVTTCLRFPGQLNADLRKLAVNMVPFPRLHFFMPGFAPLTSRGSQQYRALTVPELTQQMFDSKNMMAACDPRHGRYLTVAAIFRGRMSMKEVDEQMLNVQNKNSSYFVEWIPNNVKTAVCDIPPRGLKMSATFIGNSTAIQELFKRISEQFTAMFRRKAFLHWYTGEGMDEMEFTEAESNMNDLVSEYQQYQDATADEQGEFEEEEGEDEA

As for `CCCCCCCCCCCC[C@@H](O)[C@H]1CC[C@H](CO)O1` [COBRA-1], the “effect on ZF embryo” value was “start of cell fusion” in [1] (200 μM, 30 minutes); “cell division blockade, total fusion and developmental arrest” in experiment [1] (200 μM, 60 minutes); “deterioration of cell division and start of cell fusion” in experiment [1] (400 μM, 30 minutes); “cell division blockade, total fusion and developmental arrest” in experiment [1] (400 μM, 60 minutes). The “effect on two-cell stage ZF embryos” value in experiment [1] (200 and 400 μM) is “developed normally for 30 minutes, up to the 8-cell stage, and then showed an immediate arrest of proliferation followed by cell fusion”. The “effect on GTP-dependent tubulin polymerization (turbidity)” value on Bovine brain tubulin is “caused partial depolymerization of tubulin and inhibited its polymerization in the presence of GTP”. For the same compound, in the experiment with human tumor cell lines, the “inhibition of all cell lines” value is “inhibited by COBRA-1 in a dose-dependent fashion”. Further, the IC50 came out at 140 µM in the experiment on SQ20B; 49 µM in the experiment on NALM-6; 171 µM in the experiment on PC-3; 107 µM in the experiment with U87; 77 µM in the experiment on MDA-MB-231. Also, the “cell morphology / microtubules” value was “the cells shrink and the microtubules become less organized” in [2] (BT-20, 100 μM, 24 hours); “cell death with nuclear fragmentation and complete loss of microtubule formation” in [2] (BT-20, 200 μM); “induces abnormal tubulin structures” in the experiment with U373 brain tumor cells [3] (U373, 100 μM); “cell death with nuclear fragmentation and complete loss of microtubule formation” with U373 brain tumor cells [3] (U373, 200 μM). Moreover, the cell morphology entry with U373 brain tumor cells [4] (after 1 hour) was “only trailing edges are present”; with U373 brain tumor cells [4] (within 40 minutes of drug addition), “only one membrane ruffle is still evident”. In the experiment on U373 brain tumor cells [4] (tumor cells (U373)), the “onset of induced apoptosis after exposure” value was “approximately 1 hour”. Further, the “time to total destruction” value in the experiment on U373 brain tumor cells [4] (tumor cells (U373)) is ≤ 24 h. Besides, the ultrastructural changes result in the experiment with Nalm-6 leukemia cells was “nuclear fragmentation, chromatin condensation, and formation of multiple autophagosomes, consistent with apoptosis”.
In the case of `CCCCCCCCCCCCSCC(NC(C)=O)C(=O)CCl` (stereo not drawn) [COBRA-5, N-Ac-S-dodecyl-Cys Chloromethyl Ketone], in the experiment with human cell lines, the “anti-cancer activity against human cell lines” value was “very potent anti-cancer activity”. Also, the “effect on GTP-dependent tubulin polymerization (turbidity)” value on Bovine brain tubulin is “caused partial depolymerization of tubulin and completely inhibited its polymerization in the presence of GTP”. The same compound gave a concentration for an effect of 90% (IC90) at Bovine brain tubulin (stated in the tubulin polymerization paragraph, assay not named) of 10 µM.

The values above are taken from US20020045764A1, “Tubulin binding compounds (COBRA)” (Parker Hughes Institute, priority 1998, published 2002).
